Data as given in PubChem BioAssay (NCI).
Several values for one entry are separate records, joined by “and”; a condition that tells them apart may be missing. Equal entries are not always repeated.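 Method: 48-hour compound exposure of cells in 96-well plates, five concentrations, linear interpolation of endpoints. GI50: concentration for 50% inhibition of growth. The concentration for full growth arrest is given as TGI.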

Key:
Assay in all cases: DTP human tumour cell line panel, 48 h
HT29 colon = test system: HT29 colon
UO-31 renal = test system: UO-31 renal
SK-MEL-28 melanoma = test system: SK-MEL-28 melanoma
LOX IMVI melanoma = test system: LOX IMVI melanoma
NCI/ADR-RES ovarian = test system: NCI/ADR-RES ovarian
K-562 leukemia = test system: K-562 leukemia
NCI-H460 lung = test system: NCI-H460 lung
OVCAR-5 ovarian = test system: OVCAR-5 ovarian

| Compound | GI50 (HT29 colon) | TGI (HT29 colon) | GI50 (UO-31 renal) | TGI (UO-31 renal) | TGI (SK-MEL-28 melanoma) | GI50 (LOX IMVI melanoma) | TGI (LOX IMVI melanoma) | GI50 (NCI/ADR-RES ovarian) | TGI (NCI/ADR-RES ovarian) | GI50 (K-562 leukemia) | TGI (K-562 leukemia) | GI50 (NCI-H460 lung) | TGI (NCI-H460 lung) | GI50 (OVCAR-5 ovarian) | TGI (OVCAR-5 ovarian) | GI50 (SK-MEL-28 melanoma) |
| --- | --- | --- | --- | --- | --- | --- | --- | --- | --- | --- | --- | --- | --- | --- | --- | --- |
| CC1=C/C(O)CC(=O)Cc2nc(co2)C(=O)N2CCC=C2C(=O)OC(C(C)C)C(C)/C=C\C(=O)NC/C=C\1 (stereo not drawn) | 13.2 µM | 30.7 µM and 31.8 µM | 25.7 µM | 91.7 µM | 44.6 µM and 46.3 µM | 12.9 µM | 34.7 µM and 36.1 µM | > 100 µM | > 100 µM | > 59.5 µM | > 100 µM | 17.8 µM | 58 µM and > 100 µM | 31.6 µM | 71.8 µM and 75.6 µM |  |
| CCOC(=O)Nc1ccc(C(=O)/C=C/c2ccccc2)cc1 | 10.1 µM | > 100 µM | 26.9 µM | > 100 µM | > 100 µM | 8.7 µM | 33.1 µM | 24.2 µM | 65.8 µM | 8.28 µM | > 100 µM | 28.9 µM | > 100 µM | 28.9 µM | 90.5 µM | 59 µM |
| COc1cc2oc(-c3cccc(C(=O)Nc4ccc(C)cc4)c3)cc(=O)c2c(OC)c1OC | 2.55 µM | > 100 µM | 3.5 µM | > 100 µM | 4.11 µM | 0.32 µM | 3.97 µM | 1.46 µM | > 100 µM | 3.4 µM | > 100 µM | 1.47 µM | > 100 µM | 2.17 µM | > 100 µM | 1.67 µM |
| CN(C)CCCN1c2ccc(O)cc2Sc2ccc(Cl)cc21 |  | 14.7 µM |  | 21.7 µM | 24.7 µM |  | 20.2 µM |  | 30.1 µM |  | 16.8 µM |  | 14.5 µM |  | 30.8 µM |  |
| Cc1ccc(NC(=O)N2CCCCC2)cc1[N+](=O)[O-] | > 100 µM | > 100 µM | > 100 µM | > 100 µM | > 100 µM | > 100 µM | > 100 µM | > 100 µM | > 100 µM | > 100 µM | > 100 µM | > 100 µM | > 100 µM | > 100 µM | > 100 µM | > 100 µM |
| CC(C)c1ccc(/C=N/N=C(N)N)cc1 | 3.19 µM | 9.65 µM | 10.3 µM | 22.3 µM | 21 µM | 3.49 µM | 14.7 µM | 6.33 µM | 23.2 µM | 4.16 µM | 16.2 µM | 3.89 µM | 14.4 µM | 12.9 µM | 30.2 µM | 8.41 µM |
| Cc1ccc(S(=O)(=O)N[C@@H](Cc2ccccc2)C(=O)CCl)cc1 | 24 µM | > 100 µM | 16.3 µM | 39 µM | 53.7 µM | 2.31 µM | 10.4 µM | 22.3 µM | 65.7 µM | 4.26 µM | 31.4 µM | 21.8 µM | > 100 µM | 13.7 µM | 65.9 µM |  |
| COC(=O)[C@@H]1[C@H](O)[C@H](C)[C@H](O)[C@H](C)/C=C\C=C(C)C(=O)Nc2c(C)c(OC(C)=O)c3c(c2O)C(=O)C(C)=C2OCOC(=C23)C(C)=C[C@@](C)(O)[C@H](O)[C@@H](C)[C@H]1OC(C)=O |  | > 100 µM |  | > 100 µM | > 100 µM |  | > 100 µM |  |  |  | > 100 µM |  |  |  | > 100 µM |  |
